In patent US11718624B2, “Solid state forms of substituted pyrazolopyrimidines and uses thereof” (KSQ Therapeutics, Inc., priority 2020, dated 2023):
Where two headings read alike, the source gives them in different places.

Legend:
[1] = Mouse pharmacokinetic study, single oral dose, plasma; assay type: in vivo, NOD/SCID mice
Method: Mouse pharmacokinetic (PK) studies were conducted using Crystalline Form A of 6-(4-cyclopropyl-6-methoxypyrimidin-5-yl)-1-(4-(1-isopropyl-4-(trifluoromethyl)-1H-imidazol-2-yl)benzyl)-1H-pyrazolo[3,4-d]pyrimidine, as disclosed herein, Crystalline Form 2 of a gentisic acid co-crystal of 6-(4-cyclopropyl-6-methoxypyrimidin-5-yl)-1-(4-(1-isopropyl-4-(trifluoromethyl)-1H-imidazol-2-yl)benzyl)-1H-pyrazolo[3,4-d]pyrimidine, as disclosed herein, and Crystalline Form 8 of a benzoic acid co-crystal of 6-(4-cyclopropyl-6-methoxypyrimidin-5-yl)-1-(4-(1-isopropyl-4-(trifluoromethyl)-1H-imidazol-2-yl)benzyl)-1H-pyrazolo[3,4-d]pyrimidine, as disclosed herein.
The PK studies consisted of single dose oral exposure studies, which were conducted in female NOD/SCID mice (approximately 6 to 8 weeks, and 20-30 g at the time of study) using a compound dose of 300 mg/kg and a dosing volume of 10 mL/kg. The mice were fasted overnight prior to dosing. Animals had free access to food and water post-dosing.
(§1) Blood was sampled serially from the dorsal metatarsal vein at pre-dose, 0.25, 0.5, 1, 2, 4, 8, 24, 48 (crystalline Form 2 only), and 72 hours (crystalline Form 2 only) post PO dosing. Approximately 0.03 mL blood was collected at each time point and centrifuged at 4000 G for 5 minutes at 4° C. to provide plasma. The plasma samples were then stored in a freezer at −75±15° C. prior to LC-MS/MS analysis.
(§2) Concentrations of each compound in the plasma samples were then analyzed using an LC-MS/MS method. WinNonlin (Phoenix™, version 6.1) or other similar software was used for PK calculations. The following PK parameters were calculated, whenever possible from the plasma concentration versus time data: Cmax, Tmax, T1/2, AUCinf, and AUClast. The PK data were described using descriptive statistics such as mean with standard deviation.
Mouse pharmacokinetic (PK) studies were conducted using Crystalline Form 8 of 6-(4-cyclopropyl-6-methoxypyrimidin-5-yl)-1-(4-(1-isopropyl-4-(trifluoromethyl)-1H-imidazol-2-yl)benzyl)-1H-pyrazolo[3,4-d]pyrimidine, as disclosed herein.
as §1, with “8,” for “8, 24, 48 (crystalline Form 2 only),”, “24” for “72”, “hours” for “hours (crystalline Form 2 only)”
as §2, with “of” for “of each”

[2] = Distribution in rat brain and plasma after single oral dose; assay type: in vivo, Sprague Dawley rats; conditions: single oral dose 100 mg/kg; for Kp / Cmax / Tmax / half-life / AUC(0-inf): Sprague Dawley, rat; for Kp: brain and plasma, read-out: B/P Conc. Ratio at tmax
Method: Male and female Sprague Dawley rats were purchased from Beijing Anikeeper Biotech Co, Ltd. Animals were habituated to the environment prior to study initiation. Rats were dosed with single dose of 100 mg/kg crystalline Form 2 via oral gavage. The rats were fasted overnight prior to dosing. Animals had access to food from 2 hours post dose and free access to water throughout the study. Approximately 0.2 mL of blood was sampled via jugular vein at each time point and centrifuged at 4000 G for 5 minutes at 4° C. to provide plasma. Samples were then stored in a freezer at −75±15° C. prior to LC-MS/MS analysis. Whole brain was collected after hemoperfusion and snap frozen on dry ice prior to storage at −75±15° C. Prior to LC-MS/MS analysis whole brains were weighed and homogenized with water by tissue weight (g) to water volume (ml) ratio 1:3 before analysis. Actual concentration is the measured value multiplied by the dilution factor. The PK data were described using descriptive statistics such as mean with standard deviation.

[3] = Distribution in mouse brain and plasma after repeated oral dosing; assay type: in vivo; conditions: female NOD SCID mice; for concentration at 4 h / Kp at 4 h: 4 h (Day 28); for concentration at 24 h / Kp at 24 h: 24 h (Day 28); for Kp at 4 h / Kp at 24 h: brain/plasma, read-out: B/P Ratio
Method: Female NOD SCID mice of an age between 6-8 weeks and a body weight range of 18-22 g were purchased from Beijing Anikeeper Biotech Co, Ltd. Animals were habituated to the environment for at least 7 days prior to study initiation. Mice were dosed with Crystalline Form 2 at either 100 mg/kg or 300 mg/kg dose levels via oral gavage for 28 days. After 24 hours following 27 doses of compound, three mice were euthanized via CO2. After four hours following 28 doses of compound, three mice were euthanized via CO2. At each time point the whole brain was collected. In addition, approximately 0.03 mL of blood was collected at each time point and centrifuged at 4000 G for 5 minutes at 4° C. to provide plasma. Samples were then stored in a freezer at −75±15° C. prior to LC-MS/MS analysis. Concentrations of compound in brain homogenates (ng/g) and plasma (ng/ml) were then analyzed using an LC-MS/MS method. The PK data were described using descriptive statistics such as mean with standard deviation.

[4] = Mouse 9, single PO dose 300 mg/kg, plasma, 300 mg/kg
[5] = Mean, female NOD/SCID mice, single PO dose 300 mg/kg, plasma, 300 mg/kg
[6] = Mouse 8, single PO dose 300 mg/kg, plasma, 300 mg/kg
[7] = brain, 100 mg/kg QD oral gavage, read-out: Brain Conc.
[8] = brain, 300 mg/kg QD oral gavage, read-out: Brain Conc.
[9] = plasma, 100 mg/kg QD oral gavage, read-out: Plasma Conc.
[10] = plasma, 300 mg/kg QD oral gavage, read-out: Plasma Conc.
[11] = female, NOD/SCID, mouse, plasma, po, 300 mg/kg, Mouse 11, single PO dose 300 mg/kg
[12] = female, NOD/SCID, mouse, plasma, po, 300 mg/kg, Mouse 12, single PO dose 300 mg/kg

## COc1ncnc(C2CC2)c1-c1ncc2cnn(Cc3ccc(-c4nc(C(F)(F)F)cn4C(C)C)cc3)c2n1 [Crystalline Form A, 6-(4-cyclopropyl-6-methoxypyrimidin-5-yl)-1-(4-(1-isopropyl-4-(trifluoromethyl)-1H-imidazol-2-yl)benzyl)-1H-pyrazolo[3,4-d]pyrimidine]
[1]; [4]
  Tmax: 4.00 h
[1]; female, NOD/SCID, mouse, plasma, po, 300 mg/kg, Mouse 7, single PO dose 300 mg/kg, plasma, read-out: Tmax
  Tmax: 8 h
[1]; female, NOD/SCID, mouse, plasma, po, 300 mg/kg, Mouse 8, single PO dose 300 mg/kg
  half-life: 6.79 h

## COc1ncnc(C2CC2)c1-c1ncc2cnn(Cc3ccc(-c4nc(C(F)(F)F)cn4C(C)C)cc3)c2n1 [Crystalline Form 2, 6-(4-cyclopropyl-6-methoxypyrimidin-5-yl)-1-(4-(1-isopropyl-4-(trifluoromethyl)-1H-imidazol-2-yl)benzyl)-1H-pyrazolo[3,4-d]pyrimidine]
[1]; [5]
  Cmax: 28900 ng/mL
[1]; Mouse 7, single PO dose 300 mg/kg, plasma
  Tmax: 8.00 h
[1]; [6]
  AUClast: 835.713 µg·h/mL
  Cmax: 28900 ng/mL
[1]; [4]
  Cmax: 29000 ng/mL
  Tmax: 12.0 h
[1]; at about 300 mg/kg
  mouse oral exposure levels compared with crystalline Form A (freebase): higher exposure levels
[1]; female, NOD/SCID, mouse, plasma, po, 300 mg/kg, Mouse 7, single PO dose 300 mg/kg
  half-life: 4.03 h
[2]; Female SD rats, brain
  AUC0−∞: 120933 ng·h/g
  Cmax: 5610 ng/g
  Tmax: 8 h
  half-life: 12.8 h
[2]; Male SD rats, brain
  AUC0−∞: 60596 ng·h/g
  Cmax: 3900 ng/g
  Tmax: 8 h
  half-life: 7.43 h
[2]; Female SD rats
  Kp: 0.58
[2]; Male SD rats
  Kp: 0.731
[2]; Female SD rats, plasma
  AUC(0-inf): 266 µg·h/mL
  Cmax: 9760 ng/mL
  Tmax: 8 h
  half-life: 16.9 h
[2]; Male SD rats, plasma
  AUC(0-inf): 102 µg·h/mL
  Cmax: 5300 ng/mL
  Tmax: 8 h
  half-life: 9.13 h
[3]; [7]
  concentration at 4 h: 1520 ± 559 ng/g
  concentration at 24 h: 19.5 ng/g
[3]; [8]
  concentration at 4 h: 6500 ± 1050 ng/g
  concentration at 24 h: 66.1 ± 81.7 ng/g
[3]; 100 mg/kg QD oral gavage
  Kp at 4 h: 0.306 ± 0.125
  Kp at 24 h: 0.091 ± 0.014
[3]; 300 mg/kg QD oral gavage
  Kp at 4 h: 0.424 ± 0.018
  Kp at 24 h: 0.102 ± 0.007
[3]; [9]
  concentration at 4 h: 5040 ± 694 ng/mL
  concentration at 24 h: 178 ± 165 ng/mL
[3]; [10]
  concentration at 4 h: 15300 ± 2320 ng/mL
  concentration at 24 h: 667 ± 852 ng/mL

## COc1ncnc(C2CC2)c1-c1ncc2cnn(Cc3ccc(-c4nc(C(F)(F)F)cn4C(C)C)cc3)c2n1 [Crystalline Form 8, 6-(4-cyclopropyl-6-methoxypyrimidin-5-yl)-1-(4-(1-isopropyl-4-(trifluoromethyl)-1H-imidazol-2-yl)benzyl)-1H-pyrazolo[3,4-d]pyrimidine]
[1]; [5]
  Cmax: 14770 ng/mL
  T1/2: 6.8 h
  Tmax: 3.50 h
[1]; Mean, female NOD/SCID mice, single PO dose 300 mg/kg, plasma, sampling to 24 h (to 72 h for Form 2), 300 mg/kg
  AUClast: 182.045 µg·h/mL
[1]; female, NOD/SCID, mouse, plasma, po, 300 mg/kg, Mouse 10, single PO dose 300 mg/kg
  AUC(0-t): 145 µg·h/mL
[1]; female, NOD/SCID, mouse, plasma, po, 300 mg/kg, Mouse 10, single PO dose 300 mg/kg, plasma, read-out: Cmax
  Cmax: 8810 ng/mL
[1]; female, NOD/SCID, mouse, plasma, po, 300 mg/kg, Mouse 10, single PO dose 300 mg/kg, plasma, read-out: Tmax
  Tmax: 8 h
[1]; [11]
  AUC(0-t): 168 µg·h/mL
  half-life: 11.4 h
[1]; female, NOD/SCID, mouse, plasma, po, 300 mg/kg, Mouse 11, single PO dose 300 mg/kg, plasma, read-out: Cmax
  Cmax: 18200 ng/mL
[1]; female, NOD/SCID, mouse, plasma, po, 300 mg/kg, Mouse 11, single PO dose 300 mg/kg, plasma, read-out: Tmax
  Tmax: 0.5 h
[1]; [12]
  AUC(0-t): 233 µg·h/mL
  half-life: 2.08 h
[1]; female, NOD/SCID, mouse, plasma, po, 300 mg/kg, Mouse 12, single PO dose 300 mg/kg, plasma, read-out: Cmax
  Cmax: 17300 ng/mL
[1]; female, NOD/SCID, mouse, plasma, po, 300 mg/kg, Mouse 12, single PO dose 300 mg/kg, plasma, read-out: Tmax
  Tmax: 2 h
